Data published in patent US11447471B2, “α,β-unsaturated amide compound” (KYOWA KIRIN CO., LTD., priority 2017, dated 2022).

What was measured:
Format in all cases: cell-based
NCI-H226 cells = test: Cell growth inhibitory effect on human mesothelioma cell line (cell counting kit 8, 6 days); details: NCI-H226, 144 h
Source text: (§1) NCI-H226 cells, a human mesothelioma cell line (ATCC, CRL-5826), NCI-H322 cells, a human lung cancer cell line (the European Collection of Authenticated Cell Cultures, 95111734), OUTOKO cells, a human ovarian cancer cell line (JCRB cell bank, KRB1048) and […] were each subcultured by keeping the cell density under 80% in a RPMI1640 culture medium with 10% fetal bovine serum (FBS). NCI-H226 cells, NCI-H322 cells and SSP-25 cells were each suspended in the RPMI1640 culture medium mentioned above, and plated to a 96-well flat-bottom plate at 500 cells/well in each well, and incubated at 37° C. in an incubator with 5% CO2 for one day. After the incubation, the evaluation of cell growth inhibitory activity was started. OVTOKO cells were suspended in the RPMI1640 culture medium mentioned above, and plated to a 96-well flat-bottom plate at 250 cells/well in each well, and incubated it at 37° C. in an incubator with 5% CO2 for one day. After the incubation, the evaluation of the cell growth inhibitory activity was started. The next day, a test compound was serially diluted to 5 times of its final concentration in the RPM11640 culture medium mentioned above, and the diluted solution was added to each well. In this case, the final concentration of DMSO in each well was adjusted to 0.1%. After the test compound was added, cells were incubated at 37° C. in an incubator with 5% CO2 for 6 days. At the addition of the test compound and 6 days after the addition, the cell counting measurement was performed using a cell counting kit 8 (made by DOJINDO) according to a protocol equivalent to DOJINDO's recommendation. A reagent contained in the kit was added to each plate and color reaction was performed for 2 or 3 hours at 37° C. in an incubator with 5% CO2. After the reaction, an absorbance at wavelength of 450 nm was measured using a microplate reader. A growth inhibition rate was calculated according to the following formula, from which the concentration of a test compound at which cell growth was inhibited by 50% (GI50 value) was determined.

NCI-H322 cells = test: Cell growth inhibitory effect on human lung cancer cell line (cell counting kit 8, 6 days); details: 144 h; human lung cancer cell line NCI-H322, 6 days incubation
Source text: as §1

OVTOKO cells = test: Cell growth inhibitory effect on human ovarian cancer cell line (cell counting kit 8, 6 days); details: 144 h, 6 days incubation
Source text: as §1

HuH28 cells = test: Cell growth inhibitory effect on human liver cancer cell line (cell counting kit 8, 6 days); details: 144 h; human liver cancer cell line HuH28, 6 days incubation
Source text: as §1

| GI50 (NCI-H226 cells) [µM] | GI50 (NCI-H322 cells) [µM] | GI50 (OVTOKO cells) [µM] | GI50 (HuH28 cells) [µM] | Compound |
| --- | --- | --- | --- | --- |
| < 0.1 | < 1 | ≤ 3 | – | C=CC(=O)N[C@@H]1CC[C@H](Oc2ccc(C(F)(F)F)cc2)c2nc(C)ccc21 (relative stereo) [Compound 184, cis-N-[2-Methyl-8-{4-(trifluoromethyl)phenoxy}-5,6,7,8-tetrahydroquinolin-5-yl]acrylamide] |
| < 0.1 | < 1 | ≤ 3 | < 3 | C=CC(=O)NCc1ccc(Oc2ccc(C(F)(F)F)nc2)c2nc(C)oc12 [Compound 249, N-{(2-Methyl-4-[{6-(trifluoromethyl)pyridin-3-yl}oxy]benzo[d]oxazol-7-yl)methyl}acrylamide] |
| < 0.1 | < 1 | ≤ 3 | < 3 | C=CC(=O)NCc1ccc(Oc2ccc(C(F)(F)F)nc2)c2sc(C)nc12 [Compound 287, N-{(2-Methyl-7-[{6-(trifluoromethyl)pyridin-3-yl}oxy]benzo[d]thiazol-4-yl)methyl}acrylamide] |
| < 0.1 | < 1 | ≤ 3 | < 3 | C=CC(=O)NCc1ccc(OCc2ccccc2)c2nc(C)oc12 [Compound 282, N-[{4-(Benzyloxy)-2-methylbenzo[d]oxazol-7-yl}methyl]acrylamide] |
| < 0.1 | – | ≤ 3 | < 3 | C=CC(=O)NCc1ccc(OC2CCCCC2)c2nc(C)oc12 [Compound 276, N-[{4-(Cyclohexyloxy)-2-methylbenzo[d]oxazol-7-yl}methyl]acrylamide] |
| < 0.1 | < 1 | – | < 3 | C=CC(=O)NCc1ccc(Oc2ccc(C(F)(F)F)cc2)c2nc(C(C)C)oc12 [Compound 245, N-([2-Isopropyl-4-{4-(trifluoromethyl)phenoxy}benzo[d]oxazol-7-yl]methyl)acrylamide] |
| < 0.1 | < 1 | ≤ 3 | < 3 | C=CC(=O)NCc1ccc(Sc2ccc(C(F)(F)F)cc2)c2nc(C)oc12 [Compound 272, N-{(2-Methyl-4-[{4-(trifluoromethyl)phenyl}thio]benzo[d]oxazol-7-yl)methyl}acrylamide] |
| < 0.1 | < 1 | ≤ 3 | < 3 | C=CC(=O)NCc1ccc(Nc2ccc(C(F)(F)F)cc2)c2nc(C)oc12 [Compound 270, N-{(2-Methyl-4-[{4-(trifluoromethyl)phenyl}amino]benzo[d]oxazol-7-yl)methyl}acrylamide] |
| 0.1 to 1 | < 1 | ≤ 3 | < 3 | C=CC(=O)NCc1ccc(Oc2ccc(N(C)C)cc2)c2nc(C)oc12 [Compound 275, N-([4-{4-(Dimethylamino)phenoxy}-2-methylbenzo[d]oxazol-7-yl]methyl)acrylamide] |
| < 0.1 | < 1 | ≤ 3 | < 3 | C=CC(=O)NC1CCOc2c1ccc(Oc1ccc(C(F)(F)F)nc1)c2OC (centres unmarked) [Compound 163, N-(8-Methoxy-7-[{6-(trifluoromethyl)pyridin-3-yl}oxy]chroman-4-yl)acrylamide] |
| < 0.1 | < 1 | – | < 3 | C=CC(=O)NCc1ccc(Oc2ccc(C(F)(F)F)nc2)c2nc(CC)oc12 [Compound 251, N-{(2-Ethyl-4-[{6-(trifluoromethyl)pyridin-3-yl}oxy]benzo[d]oxazol-7-yl)methyl}acrylamide] |
| < 0.1 | < 1 | ≤ 3 | – | C=CC(=O)NC1CC[C@H](Oc2ccc(C(F)(F)F)cc2)c2nc(Cl)ccc21 (stereo in doubt) [Compound 76, cis-N-[2-Chloro-8-{4-(trifluoromethyl)phenoxy}-5,6,7,8-tetrahydroquinolin-5-yl]acrylamide] |
| < 0.1 | < 1 | ≤ 3 | – | C=CC(=O)NC1CC[C@H](Oc2ccc(Cl)cc2)c2nc(Cl)ccc21 (stereo in doubt) [Compound 70, cis-N-{2-Chloro-8-(4-chlorophenoxy)-5,6,7,8-tetrahydroquinolin-5-yl}acrylamide] |
| < 0.1 | < 1 | – | < 3 | C=CC(=O)NCc1ccc(Oc2ccc(C(F)(F)F)cc2)c2sc(C)nc12 [Compound 257, N-([2-Methyl-7-{4-(trifluoromethyl)phenoxy}benzo[d]thiazol-4-yl]methyl)acrylamide] |
| – | – | ≤ 3 | < 3 | C=CC(=O)NCc1ccc(S(=O)(=O)c2ccc(C(F)(F)F)cc2)c2nc(C)oc12 [Compound 271, N-{(2-Methyl-4-[{4-(trifluoromethyl)phenyl}sulfonyl]benzo[d]oxazol-7-yl)methyl}acrylamide] |
| < 0.1 | < 1 | – | < 3 | C=CC(=O)NCc1ccc(Oc2ccc(C(F)(F)F)cc2)c2oc(C)nc12 [Compound 253, N-([2-Methyl-7-{4-(trifluoromethyl)phenoxy}benzo[d]oxazol-4-yl]methyl)acrylamide] |
| < 0.1 | < 1 | ≤ 3 | – | C=CC(=O)NC1CC[C@H](Oc2ccc(Cl)cc2)c2nc(OC)ccc21 (stereo in doubt) [Compound 71, cis-N-{8-(4-Chlorophenoxy)-2-methoxy-5,6,7,8-tetrahydroquinolin-5-yl}acrylamide] |
| < 0.1 | < 1 | – | < 3 | C=CC(=O)NCc1ccc(Oc2ccc(C(F)(F)F)cn2)c2nc(CC)oc12 [Compound 252, N-{(2-Ethyl-4-[{5-(trifluoromethyl)pyridin-2-yl}oxy]benzo[d]oxazol-7-yl)methyl}acrylamide] |
| 0.1 to 1 | – | ≤ 3 | < 3 | C=CC(=O)NCc1ccc(/C=C/c2ccc(C(F)(F)F)cc2)c2nc(C)oc12 [Compound 273, (E)-N-([2-Methyl-4-{4-(trifluoromethyl)styryl}benzo[d]oxazol-7-yl]methyl)acrylamide] |
| < 0.1 | < 1 | – | – | C=CC(=O)NC1COc2c(Br)cc(Oc3ccc(C(F)(F)F)cc3)cc21 (centres unmarked) [Compound 263, N-[7-Bromo-5-{4-(trifluoromethyl)phenoxy}-2,3-dihydrobenzofuran-3-yl]acrylamide] |
| 0.1 to 1 | < 1 | – | < 3 | C=CC(=O)NCc1ccc(Oc2ccc(C(F)(F)F)cc2)c2nc(-c3ccccc3)oc12 [Compound 246, N-([2-Phenyl-4-{4-(trifluoromethyl)phenoxy}benzo[d]oxazol-7-yl]methyl) acrylamide] |
| < 0.1 | < 1 | ≤ 3 | – | C=CC(=O)NC1CC[C@@H](Oc2ccc(C(F)(F)F)cc2)c2nc(Cl)ccc21 (stereo in doubt) [Compound 82, trans-N-[2-Chloro-8-{4-(trifluoromethyl)phenoxy}-5,6,7,8-tetrahydroquinolin-5-yl]acrylamide] |
| < 0.1 | < 1 | – | – | C=CC(=O)NCc1cc(Oc2ccc(C(F)(F)F)cc2)c2ncccc2c1 [Compound 214] |
| < 0.1 | < 1 | – | – | C=CC(=O)NC1COc2c(Oc3ccc(C(F)(F)F)cc3)cccc21 (centres unmarked) [Compound 264, N-[7-{4-(Trifluoromethyl)phenoxy}-2,3-dihydrobenzofuran-3-yl]acrylamide] |
| < 0.1 | < 1 | – | – | C=CC(=O)NC1COc2ccc(Oc3ccc(C(F)(F)F)cc3)cc21 (centres unmarked) [Compound 262, N-[5-{4-(Trifluoromethyl)phenoxy}-2,3-dihydrobenzofuran-3-yl]acrylamide] |
